Numbers after ± are expanded uncertainties.

In the NIST ThermoML archive (doi:10.1021/je034265f) one finds activity coefficient data, which are given here for 16 compounds.

A short description of this data set: activity coefficient (dimensionless); of the first substance listed, at infinite dilution; xn = mol fraction of the nth substance listed. The note with it: Liquid, x1 = 0.

Take `CCCC` [butane] + CCCCO: the activity coefficient runs as follows: (250.01 K) 4.1 ± 0.1; (270.04 K) 4.1 ± 0.1; (290.01 K) 4.1 ± 0.1; (310.01 K) 4 ± 0.1; (330 K) 3.9 ± 0.1.

As for `C=CCC` [1-butene] + CCCCO, the activity coefficient is 3.5 ± 0.1 (250.01 K); 3.4 ± 0.1 (270 K); 3.4 ± 0.1 (290.01 K); 3.3 ± 0.1 (310 K); 3.2 ± 0.1 (330 K).

As for `CCCC` [butane] + CCC(C)O, the activity coefficient (249.96 K) was 4.2 ± 0.1; the activity coefficient (270 K) amounted to 4.1 ± 0.1; the activity coefficient (290 K) worked out at 4 ± 0.1; the activity coefficient (310 K) was 3.9 ± 0.1; the activity coefficient (330 K) came to 3.6 ± 0.1.

With `C=CC` [propene] + CCC(C)O, the activity coefficient (249.97 K) amounted to 3.1 ± 0.1; the activity coefficient (269.99 K) was determined as 3.1 ± 0.1; the activity coefficient (290 K) is 3.1 ± 0.1; the activity coefficient (310 K) amounted to 3 ± 0.1; the activity coefficient (330 K) turned out to be 2.8 ± 0.1.

Turning to `C/C=C/C` [(E)-2-butene] + CCC(C)O, the activity coefficient was determined as 3.7 ± 0.1 (249.97 K); 3.6 ± 0.1 (269.99 K); 3.5 ± 0.1 (290 K); 3.3 ± 0.1 (310 K); 3.1 ± 0.1 (330 K).

For the compound `C=CCC` [1-butene] + CCC(C)O, the activity coefficient runs as follows: (249.97 K) 3.7 ± 0.1; (269.99 K) 3.6 ± 0.1; (290 K) 3.5 ± 0.1; (310 K) 3.3 ± 0.1; (330 K) 3.1 ± 0.1.

Regarding `CCC` [propane] + CCC(C)O, the activity coefficient is, setting by setting: (249.97 K) 3.6 ± 0.1; (269.99 K) 3.5 ± 0.1; (290 K) 3.5 ± 0.1; (310 K) 3.5 ± 0.1; (330 K) 3.3 ± 0.1.

`CC(C)C` [2-methylpropane] + CCCCO: the activity coefficient was found to be 4.4 ± 0.1 (250.01 K); 4.4 ± 0.1 (270.04 K); 4.3 ± 0.1 (290.01 K); 4.3 ± 0.1 (310.01 K); 4.1 ± 0.1 (330 K).

Consider `CC(C)C` [2-methylpropane] + CCC(C)O, for which the activity coefficient runs as follows: (249.97 K) 4.4 ± 0.1; (270 K) 4.3 ± 0.1; (290 K) 4.2 ± 0.1; (310 K) 4.1 ± 0.1; (330 K) 3.8 ± 0.1.

Turning to `C=C(C)C` [2-methylpropene] + CCC(C)O, the activity coefficient (249.99 K) turned out to be 3.7 ± 0.1; the activity coefficient (270 K) turned out to be 3.5 ± 0.1; the activity coefficient (290 K) is 3.4 ± 0.1; the activity coefficient (310 K) amounted to 3.2 ± 0.1; the activity coefficient (330 K) came to 3 ± 0.1.

As for `C/C=C/C` [(E)-2-butene] + CCCCO, the activity coefficient runs as follows: (250.01 K) 3.4 ± 0.1; (270 K) 3.4 ± 0.1; (290.01 K) 3.4 ± 0.1; (310 K) 3.3 ± 0.1; (330 K) 3.3 ± 0.1.

As to `C=CC=C` [1,3-butadiene] + CCCCO, the activity coefficient (250.01 K) is 3 ± 0.1; the activity coefficient (270.04 K) stood at 2.9 ± 0.1; the activity coefficient (290.01 K) amounted to 2.9 ± 0.1; the activity coefficient (310.01 K) was 2.9 ± 0.1; the activity coefficient (330 K) came to 2.8 ± 0.1.

Turning to `CCC` [propane] + CCCCO, the activity coefficient is, setting by setting: (250.01 K) 3.6 ± 0.1; (270 K) 3.6 ± 0.1; (290.01 K) 3.6 ± 0.1; (310 K) 3.6 ± 0.1; (330 K) 3.6 ± 0.1.

As to `C=C(C)C` [2-methylpropene] + CCCCO, the activity coefficient is, setting by setting: (250.01 K) 3.4 ± 0.1; (270.04 K) 3.4 ± 0.1; (290.01 K) 3.4 ± 0.1; (310.01 K) 3.3 ± 0.1; (330 K) 3.2 ± 0.1.

For `C=CC` [propene] + CCCCO, the activity coefficient is, setting by setting: (249.99 K) 3 ± 0.1; (270 K) 3 ± 0.1; (290.01 K) 3 ± 0.1; (310 K) 3 ± 0.1; (330 K) 3 ± 0.1.

`C=CC=C` [1,3-butadiene] + CCC(C)O: the activity coefficient reads like this: (249.99 K) 3.5 ± 0.1; (270 K) 3.4 ± 0.1; (290 K) 3.2 ± 0.1; (310 K) 3 ± 0.1; (330 K) 2.8 ± 0.1.
